This note sets out measurements from ChEMBL document CHEMBL4251695, “Data Sets Representative of the Structures and Experimental Properties of FDA-Approved Drugs” (ACS Med Chem Lett, 2018).

Type in all cases: ADME, organism-based
Holding throughout (details): in vivo

The species named for one data set is Homo sapiens. As to the kind of experiment: Half life in human.
Data set [1] is described as follows: Clearance in human.
Data set [2] can be described thus: Cmax in human.

As to `COc1cc2c(cc1OC)[C@@H](Cc1cc(OC)c(OC)c(OC)c1)[N+](C)(CCCOC(=O)CC/C=C/CCC(=O)OCCC[N+]1(C)CCc3cc(OC)c(OC)cc3[C@H]1Cc1cc(OC)c(OC)c(OC)c1)CC2` (some centres undefined), the t1/2 in the data set filed under Homo sapiens is listed as 2 min.

The molecule `CCCCC[C@H](O)/C=C/[C@H]1[C@H](O)CC(=O)[C@@H]1CCCCCCC(=O)O` [ALPROSTADIL] showed a clearance in data set [1] of 115000 mL/min. In data set [2], `CC(C)C[C@H]1C(=O)N2CCC[C@H]2[C@]2(O)O[C@](NC(=O)[C@@H]3C=C4c5cccc6[nH]c(Br)c(c56)C[C@H]4N(C)C3)(C(C)C)C(=O)N12` [BROMOCRIPTINE] showed a Cmax of 0.711 nM. As for `Nc1ccn([C@@H]2O[C@H](CO)[C@@H](O)[C@@H]2O)c(=O)n1` [CYTARABINE], the clearance in data set [1] is 0.233 mL/min.
